Experimental data from PMC11944387, “Cannabidiol-Based Thiosemicarbazones: A Preliminary Study Evaluating Their Anti-Tyrosinase Properties” (Molecules, 2025).
Where “and” joins values, the source holds several entries; their conditions need not be identical. Equal entries are not always repeated. Entries after “also recorded” stand apart in the source; their conditions may differ.

Experiments:
[1] = DPPH radical-scavenging assay; conditions: 100 μM DPPH in ethanol, 30 min at room temperature in the dark, absorbance 517 nm; mean ± SD
Protocol: The total antioxidant capacity of the synthesized compounds was determined using the DPPH radical as a reagent, according to the procedure described by Chang et al. with some modifications. Briefly, 100 μL of 100 μM solution of DDPH in ethanol was added to 10 μL of the synthesized compounds at different concentrations (500, 250, 125, 62.5, 31.25, 15.62, and 7.81 μM). […] The percentage of the inhibition of DPPH oxidation was calculated according to the following formula: DPPHscavengingeffect%=Acontrol−Asample/Acontrol×100 where Acontrol means the absorbance of the control sample and Asample means the absorbance of the standard or tested compound.

mushroom TYR [2] = experiment: Inhibition of diphenolase activity of mushroom TYR (L-DOPA substrate); assay type: biochemical, Agaricus bisporus; conditions: for IC50: diphenolase activity, L-DOPA 2 mM, pH 6.8, 37 °C, read-out: IC50 against mushroom TYR catalyzing oxidation of L-DOPA; for Inhibitory activity on TYR (in words): discussion of Table 1, mushroom TYR
Protocol: The inhibitory effects of the thiosemicarbazone–CBD–aldehyde derivatives on the diphenolase activity of mushroom TYR were assessed by UV-Vis spectrometry using L-DOPA as the substrate.
A potassium phosphate buffer (80 μL, 50 mM, pH 6.8), 20 μL of tyrosinase (100 units/mL), and 2 μL of the tested compounds (10–150 μM) dissolved in dimethyl sulfoxide (DMSO) were added to 96-well plates. After incubation at 37 °C for 20 min, 100 μL of L-DOPA (2 mM) was added. The absorbance changes at 475 nm (ε = 3.7 × 10^3 M^−1cm^−1) were immediately monitored for 20 min at 37 °C using a Tecan Infinite 200 PRO plate reader. […] Dose–response curves were generated by conducting assays with increasing concentrations of each inhibitor. To ensure measurement accuracy, all experiments were performed in triplicate, with the average value used as the final result.

mushroom TYR [3] = experiment: Monophenolase inhibition assay of mushroom TYR (L-tyrosine substrate), lag time; assay type: biochemical, Agaricus bisporus; conditions: oxidation of L-tyrosine by mushroom TYR; for Lag time: compound 20 μM, without inhibitor 4.40 min; for Lag phase: control 264 s
Protocol: Additionally, the impact of the newly synthesized compounds on the initial stage of TYR enzymatic activity was evaluated using L-tyrosine as the substrate. This initial phase is characterized by a lag period and an increased reaction rate.
[…] After incubation at 37 °C for 20 min, 100 μL of L-tyrosine (2 mM) was added. The absorbance changes at 475 nm were immediately monitored for 40 min at 37 °C using a Tecan Infinite 200 PRO plate reader. The lag time was determined from the plot of absorbance at 475 nm versus time (min) by extrapolating the linear portion of the curve to the x-axis.

mushroom TYR [4] = experiment: Fluorescence quenching assay of TYR; assay type: binding, Agaricus bisporus; conditions: 310 K; for kq (bimolecular quenching rate constant): from Ksv with τ0 = 10^−8 s; for ka (binding constant): static quenching, double-log equation; for Ksv (Stern–Volmer quenching constant): λex 280 nm, pH 6.8
Protocol: The fluorescence quenching spectra were recorded with an excitation wavelength (λex = 280 nm) and excitation and emission slit widths of 5 nm. A potassium phosphate buffer (80 μL, 50 mM, pH 6.8), 20 μL of tyrosinase (100 units/mL), and 2 μL of the tested compounds (10–100 μM) dissolved in DMSO were added to 96-well plates. After incubating at 37 °C for 20 min, the fluorescence spectrum was recorded at an emission range from 315 to 415 nm. Fluorescence quenching is described by the Stern–Volmer equation [69]: F0/F=1+Kqτ0[Q]=1+ksv[Q]
For the static quenching interaction, the binding affinity (Ka) and the number of binding sites (n) between the inhibitor and TYR were determined using the following calculations:(1) logF0−F/F=nlogQ+logka where F and F0 represent the fluorescence intensities of protein in the presence and absence of a quencher, respectively. [Q] is the quencher concentration. Ksv is the Stern–Volmer quenching constant, and kq is the rate constant of the bimolecular quenching process. τ0 is the average fluorescence lifetime of the fluorophores in the absence of the quencher, with a typical value of 10^−8 s for biological macromolecules.

mushroom TYR [5] = experiment: Inhibition kinetics on diphenolase activity of TYR (Lineweaver–Burk); assay type: biochemical, Agaricus bisporus; conditions: Lineweaver–Burk plot, L-DOPA 0.1–1 mM, compound 2.5–30 μM
Protocol: The inhibition mechanism of compound 5 on the diphenolase activity of TYR was further studied. The inhibition type was determined by the classical Lineweaver–Burk plot based on the inhibitory results of 5.
To evaluate the inhibition kinetics of tyrosinase, assays were conducted in phosphate buffer (50 mM, pH 6.8) using L-DOPA as the substrate (0.1–1 mM) and tyrosinase ([…]) in the presence of varying concentrations of compound 5 (2.5–30 μM) under the same conditions as described in Section 4.4. Absorbance changes at 475 nm were continuously monitored for 40 min at 37 °C using a Tecan Infinite 200 PRO plate reader. Initial reaction velocities (V0) were determined for each inhibitor concentration, and kinetic parameters (Kₘ and Vₘₐₓ) were analyzed using Lineweaver–Burk and Michaelis–Menten plots to determine the type of inhibition. All experiments were performed in triplicate to ensure reproducibility.

[6] = Ferric-reducing antioxidant power (FRAP) assay; conditions: trolox equivalent; 45 min at 37 °C, absorbance 595 nm
Protocol: The antioxidant capacity of the synthesized compounds was evaluated by the reduction of the ferric 2,4,6-tripyridyl-s-triazine complex (Fe^3+-TPTZ) to the ferrous form (Fe^2+-TPTZ) at low pH, which causes a colored ferrous–tripyridyltriazine complex to form, according to the procedure described by Benzie et al., with some modifications. Briefly, 20 µL of the tested compound was mixed with 130 µL FRAP reagent (buffer acetate pH = 3.6, 10 mM TPTZ, 40 mM HCl, 20 mM FeCl3/H2O ratio 10:1:1) and then incubated for 45 min at 37 °C. FRAP values were obtained by comparing the absorbance change at 595 nm in test reaction mixtures with those containing ferrous ions in known concentrations using trolox as a calibration curve (concentrations between 7.8 and 500 µM). The results were expressed as μM of trolox equivalent (TE). The absorbance was measured using a Tecan Infinite 200 PRO plate reader.

| SMILES | IC50 [1] [µM] | IC50 (mushroom TYR [2]) [µM] | Lag time (mushroom TYR [3]) | Lag phase (mushroom TYR [3]) [s] | kq (bimolecular quenching rate constant) (mushroom TYR [4]) [M⁻¹ s⁻¹] | ka (binding constant) (mushroom TYR [4]) [M⁻¹] | Ksv (Stern–Volmer quenching constant) (mushroom TYR [4]) [M⁻¹] | Inhibition type (mushroom TYR [5]) | FRAP value [6] [μM TE] | Inhibitory activity on TYR (in words) (mushroom TYR [2]) |
| --- | --- | --- | --- | --- | --- | --- | --- | --- | --- | --- |
| Cc1c(C)c2c(c(C)c1O)CCC(C)(C(=O)O)O2 (stereo not shown) [trolox, reference compound] | 54.6 ± 3.45 | – | – | – | – | – | – | – | – | – |
| C=C(C)[C@@H]1CCC(C)=C[C@H]1c1c(O)cc(CCCCC)c(/C=N/NC(=S)NC)c1O [Compound 6, 3-(4-methyl-3-thiosemicarbazone)–CBD–aldehyde] | 63.7 ± 3.29 | 29.4 ± 2.22 | 6.06 min and 6.06 ± 0.11 min | 363 | 9.98e+11 | 8700 | 9980 | – | – | – |
| C=C(C)[C@@H]1CCC(C)=C[C@H]1c1c(O)cc(CCCCC)c(/C=N/NC(N)=S)c1O [Compound 5, 3-thiosemicarbazone–CBD–aldehyde] | 53.5 ± 5.29 | 27.7 ± 1.84 | 9.89 min and 9.89 ± 0.66 min | 593 | 7.61e+11 | 12100 | 7610 | mixed-type inhibition; also recorded: reversible, mixed-type inhibitor | 1257 ± 6.78 | – |
| C=C(C)[C@@H]1CCC(C)=C[C@H]1c1c(O)cc(CCCCC)cc1O [Compound 1, Cannabidiol] | 506.1 ± 4.67 | > 100 | – | – | – | – | – | – | 282.1 ± 5.68 | – |
| C=C(C)[C@@H]1CCC(C)=C[C@H]1c1c(O)cc(CCCCC)c(C=O)c1O [Compound 2] | – | > 100 | – | – | – | – | – | – | – | – |
| C=C(C)[C@@H]1CCC(C)=C[C@H]1c1c(O)cc(CCCCC)c(/C=N/NC(=S)N(C)C)c1O [Compound 7, 3-(4,4-dimethyl-3-thiosemicarbazone)–CBD–aldehyde] | 116 ± 5.05 | 28.1 ± 1.82 | 6.19 min and 6.19 ± 0.27 min | 371 | 1.38e+12 | 5200 | 13800 | – | 981.9 ± 9.66 | – |
| C=C(C)[C@@H]1CCC(C)=C[C@H]1c1c(O)cc(CCCCC)c(/C=N/NC(=S)Nc2ccccc2)c1O [Compound 8, 3-(4-phenyl-3-thiosemicarbazone)–CBD–aldehyde] | 57.6 ± 1.71 | 42.2 ± 3.52 | 4.58 min and 4.58 ± 0.04 min | 274 | 4.68e+12 | 25500 | 46800 | – | 931.7 ± 8.97 | – |
| C=C(C)[C@@H]1CCC(C)=C[C@H]1c1c(OC)cc(CCCCC)c(/C=N/NC(N)=S)c1OC [Compound 9, 3-thiosemicarbazone–CBD–dimethylether] | 316 ± 16 | 22.4 ± 2.9 | 6.67 min and 6.67 ± 0.17 min | 400 | 1.3e+12 | 13100 | 13000 | – | 431.5 ± 13.51 | – |
| C=C(C)[C@@H]1CCC(C)=C[C@H]1c1c(O)cc(CCCCC)c(/C=N/NC(=N)N)c1O [Compound 4] | – | > 100 | – | – | – | – | – | – | – | did not exhibit any inhibitory activity |
| C=C(C)[C@@H]1CCC(C)=C[C@H]1c1c(O)cc(CCCCC)c(/C=N/NC(N)=O)c1O [Compound 3] | – | > 100 | – | – | – | – | – | – | – | did not exhibit any inhibitory activity |
